In US7923441B2, “Enhancement of activity and/or duration of action of soft anti-inflammatory steroids for topical or other local application” (priority 2003, dated 2011):

Experiments:
[1] = system: forearm of a human volunteer; assay: Human vasoconstriction (blanching) testing; type: in vivo; conditions: for effect on the vasoconstrictor activity of loteprednol etabonate: co-applied, 1:5 molar ratio loteprednol etabonate:enhancer, especially at the lower concentrations; for AUC (sum of the individual vasoconstriction scores through 36 hours): compound alone; for vasoconstriction activity: tested alone
Description: Test compounds at varying mM concentrations as noted below were dissolved in ethanol/propylene glycol (9/1) solution, and 20 μL of the mixtures were applied to filter paper discs, 0.7 cm in diameter. After ethanol evaporation, each disc was attached to waterproof adhesive tape, then applied to the forearm of a human volunteer and left in place for 4 hours. Groups of 8 forearms were tested at each concentration. The intensity of vasoconstriction was judged at 2, 4, 6, 8, 10, 12, 18, 24 and 36 hours after removal of the discs.
The grading scale for the vasoconstriction activity was as follows: 0, normal skin; 1, slight pallor of indistinct outline; 2, pallor with at least two corners outlined; 3, even pallor with a clear outline of the application sites; 4, very intense pallor. The scores were totaled at each concentration at each time after removal to give a total score at each time interval and an overall total for each concentration. The higher the total score, the greater the blanching or anti-inflammatory effect.

[2] = system: forearms of human volunteers; assay: Further human vasoconstriction testing; type: in vivo; conditions: for effect on the vasoconstriction activity of BEM-17V: BEM-17V 0.1 mM; for effect on the vasoconstriction activity of BEM-17V / effect on the vasoconstriction activity of LE: enhancer 0.1-0.5 mM; for effect on the vasoconstriction activity of LE: LE 0.1 mM; for synergism with LE: LE:enhancer ratios 1:1, 1:2, 1:3, 1:4 and 1:5; for AUC (sum of the individual vasoconstriction scores through 24 hours): steroid 0.1 mM alone
Description: The resultant LE and BEM-17V solutions were then mixed (1:1) with vehicle only, or with the Δ^1-CA or Δ^1-MeCA solutions, so that LE solutions (0.1 mM) and BEM-17V solutions (0.1 mM) containing various concentrations of Δ^1-CA (0 to 0.5 mM) or Δ^1-MeCA (0 to 0.5 mM) were obtained. The resultant mixtures (20 μl) were loaded onto circular patches (6.5 mm diameter) that were attached to a water impervious adhesive film (3M). After the evaporation of ethanol, the patches and film were applied to the forearms of human volunteers for 4 hours. […] The grading scale was as follows: 0, normal skin; 1, slight pallor; 2, pallor with at least two corners outlined; 3, even pallor with a clear outline of the application sites; 4, very intense pallor. […] As before, an overall total for each concentration was then obtained.

receptor = molecular target: T1, receptor (Rattus norvegicus, UniProt P06536); conditions: medium containing 10^−5M cortienic acid as competitor; cited from earlier work
T1 sequence (P06536 1-795): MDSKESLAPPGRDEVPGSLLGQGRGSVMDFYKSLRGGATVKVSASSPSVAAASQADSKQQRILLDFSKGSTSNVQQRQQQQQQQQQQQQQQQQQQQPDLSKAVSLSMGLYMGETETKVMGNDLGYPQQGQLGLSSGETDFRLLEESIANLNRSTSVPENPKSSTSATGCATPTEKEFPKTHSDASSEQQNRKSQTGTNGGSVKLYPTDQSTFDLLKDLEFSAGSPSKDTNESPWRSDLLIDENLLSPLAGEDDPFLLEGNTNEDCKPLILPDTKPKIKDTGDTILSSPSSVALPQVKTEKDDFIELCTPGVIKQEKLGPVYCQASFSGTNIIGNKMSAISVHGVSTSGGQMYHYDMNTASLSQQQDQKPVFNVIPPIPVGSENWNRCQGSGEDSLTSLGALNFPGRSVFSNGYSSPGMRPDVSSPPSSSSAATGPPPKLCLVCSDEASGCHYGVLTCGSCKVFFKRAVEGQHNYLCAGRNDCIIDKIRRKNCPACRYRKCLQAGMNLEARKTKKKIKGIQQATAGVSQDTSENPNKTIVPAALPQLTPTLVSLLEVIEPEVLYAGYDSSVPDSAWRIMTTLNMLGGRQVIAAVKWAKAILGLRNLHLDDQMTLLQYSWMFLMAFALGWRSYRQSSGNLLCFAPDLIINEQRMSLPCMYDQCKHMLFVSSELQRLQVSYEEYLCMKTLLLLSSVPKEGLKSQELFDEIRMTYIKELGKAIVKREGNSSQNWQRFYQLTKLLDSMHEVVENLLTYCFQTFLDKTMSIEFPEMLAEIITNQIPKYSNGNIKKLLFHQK

[3] = control (0 mM) of the Δ^1-CA series
[4] = control (0 mM) of the Δ^1-MeCA series

Compound: COC(=O)[C@@]1(O)CCC2C3CCC4=CC(=O)C=CC4(C)C3C(O)CC21C (stereo partly drawn) [Δ^1-Cortienic Acid Methyl Ester, methyl 11β,17α-dihydroxyandrosta-1,4-dien-3-one-17β-carboxylate]
- effect on the vasoconstrictor activity of loteprednol etabonate [1]: significantly enhanced
- AUC (sum of the individual vasoconstriction scores through 36 hours) ([1]; 0.5 mM): 0
- AUC (sum of the individual vasoconstriction scores through 36 hours) ([1]; 2.5 mM): 0
- AUC (sum of the individual vasoconstriction scores through 36 hours) ([1]; 5 mM): 0
- AUC (sum of the individual vasoconstriction scores through 36 hours) ([1]; 25 mM): 0
- AUC (sum of the individual vasoconstriction scores through 36 hours) ([1]; 50 mM): 0
- vasoconstriction activity [1]: neither Δ^1-cortienic acid nor Δ^1-cortienic acid methyl ester had any vasoconstriction activity
- effect on the vasoconstriction activity of BEM-17V [2]: no activity-increasing effect
- effect on the vasoconstriction activity of LE [2]: increased the vasoconstriction activity of LE
- synergism with LE [2]: synergistic results

Compound: CCOC(=O)OC1(C(=O)O)CCC2C3CCC4=CC(=O)C=CC4(C)C3C(O)CC21C (stereo not drawn) [the corresponding 17α-ethyl carbonate, 17α-ethoxycarbonyloxy-11β-hydroxyandrost-1,4-dien-3-one-17β-carboxylic acid]
- intrinsic activity in receptor binding studies (receptor): inactive

Compound: chloromethyl 17α-ethoxycarbonyloxy-11β-hydroxyandrosta-1,4-dien-3-one-17β-carboxylate [Loteprednol Etabonate, reference compound]
- intrinsic activity in receptor binding studies (receptor): intrinsically active

Compound: CC12C=CC(=O)C=C1CCC1C2C(O)CC2(C)C1CC[C@]2(O)C(=O)O (stereo partly drawn) [Δ^1-Cortienic Acid, 11β,17α-dihydroxyandrosta-1,4-dien-3-one-17β-carboxylic acid]
- effect on the vasoconstrictor activity of loteprednol etabonate [1]: significantly enhanced
- AUC (sum of the individual vasoconstriction scores through 36 hours) ([1]; 0.5 mM): 0
- AUC (sum of the individual vasoconstriction scores through 36 hours) ([1]; 2.5 mM): 0
- AUC (sum of the individual vasoconstriction scores through 36 hours) ([1]; 5 mM): 0
- AUC (sum of the individual vasoconstriction scores through 36 hours) ([1]; 25 mM): 0
- AUC (sum of the individual vasoconstriction scores through 36 hours) ([1]; 50 mM): 0
- vasoconstriction activity [1]: neither Δ^1-cortienic acid nor Δ^1-cortienic acid methyl ester had any vasoconstriction activity
- intrinsic activity in receptor binding studies (receptor): inactive
- effect on the vasoconstriction activity of BEM-17V [2]: no activity-increasing effect
- effect on the vasoconstriction activity of LE [2]: increased the vasoconstriction activity of LE
- synergism with LE [2]: synergistic results

Compound: betamethasone 17-valerate [Betamethasone Valerate, reference compound]
- AUC (sum of the individual vasoconstriction scores through 24 hours) [2, 3]: 107
- AUC (sum of the individual vasoconstriction scores through 24 hours) [2, 4]: 112

Compound: CCOC(=O)O[C@]1(C(=O)OCCl)CC[C@H]2[C@@H]3CCC4=CC(=O)C=C[C@]4(C)[C@H]3[C@@H](O)C[C@@]21C [Loteprednol Etabonate, chloromethyl 17α-ethoxycarbonyloxy-11β-hydroxyandrosta-1,4-dien-3-one-17β-carboxylate, reference compound]
- AUC (sum of the individual vasoconstriction scores through 36 hours) ([1]; 0.1 mM, 20 μL on disc, 4 h application, 8 forearms): 9
- AUC (sum of the individual vasoconstriction scores through 36 hours) ([1]; 0.5 mM): 39
- AUC (sum of the individual vasoconstriction scores through 36 hours) ([1]; 1 mM): 90
- AUC (sum of the individual vasoconstriction scores through 36 hours) ([1]; 5 mM): 117
- AUC (sum of the individual vasoconstriction scores through 36 hours) ([1]; 10 mM): 122
- vasoconstriction activity [1]: significant activity
- AUC (sum of the individual vasoconstriction scores through 24 hours) [2, 3]: 99
- AUC (sum of the individual vasoconstriction scores through 24 hours) [2, 4]: 114
